Measured values taken from patent US6451828B1, “Selective inhibition of glutaminase by bis-thiadiazoles” (priority 2000, dated 2002).

Legend:
[1] = system: intestinal epithelial (CACO2) cells; test: Intracellular nucleotides in intestinal epithelial cells; format: cell-based; details: at 10 μM, FIG. 5B
Procedure: The remaining volume of the extracts was used for chromatographic determination of nucleic acids, as described in Di Pierro et al. This assay reflects the activity of a variety of glutamine amidotransferases, including CTP synthetase, which are mechanistically and functionally related to glutaminase.
CTP synthetase is a glutamine amidotransferase which synthesizes CTP by adding the amide nitrogen of glutamine to UTP.
Intestinal epithelial (CACO2) cells were grown in 12 well plates with Eagles minimal essential medium containing 2 mM glutamine, as recommended (American Tissue Culture Collection). When the cells reached about 80% confluency, fresh glutamine was added to 2 mM. […] After 6.5 h of incubation, cultures were washed twice with phosphate buffered saline and extracted with 100 μL 1M perchloric acid. Extracts were neutralized with 30 μL of 5M potassium carbonate, centrifuged, and analyzed by HPLC for nucleotides, as described in Di Pierro et al. 1995, and for amino acids, as described in Lo et al. 1998. Results are shown in FIG. 5A (amino acids) and FIG. 5B (nucleotides).

[2] = biological target: T1, glutaminase activity in rat brain membranes (Rattus norvegicus, UniProt P13264); test: Inhibition of glutaminase activity in rat brain membranes; format: biochemical; details: PO4 conc. = 8 mM; FIG. 2
T1 construct: from tissue; host or cells: rat brain membranes
T1 sequence (P13264 55-674): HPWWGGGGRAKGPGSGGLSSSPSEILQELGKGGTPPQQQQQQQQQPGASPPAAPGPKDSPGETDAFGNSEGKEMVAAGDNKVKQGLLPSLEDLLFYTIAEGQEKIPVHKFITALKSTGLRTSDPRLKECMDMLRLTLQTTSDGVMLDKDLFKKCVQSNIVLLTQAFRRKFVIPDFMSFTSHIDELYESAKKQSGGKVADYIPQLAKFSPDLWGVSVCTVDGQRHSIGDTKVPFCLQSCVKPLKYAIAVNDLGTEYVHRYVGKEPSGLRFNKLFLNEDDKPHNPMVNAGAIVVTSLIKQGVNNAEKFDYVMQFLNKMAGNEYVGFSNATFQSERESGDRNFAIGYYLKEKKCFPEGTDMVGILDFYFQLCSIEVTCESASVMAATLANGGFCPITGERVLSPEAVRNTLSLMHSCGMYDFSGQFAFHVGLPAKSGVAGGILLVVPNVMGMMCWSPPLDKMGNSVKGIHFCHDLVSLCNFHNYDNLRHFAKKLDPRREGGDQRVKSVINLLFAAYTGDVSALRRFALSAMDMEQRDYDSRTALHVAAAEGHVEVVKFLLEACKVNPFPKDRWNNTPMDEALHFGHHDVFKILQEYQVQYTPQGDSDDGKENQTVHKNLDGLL
Procedure: Aliquots of 10 μL were removed at 0, 85, and 195 min, added to 90 μL 1:3 DMF/H2O, and analyzed for glutamate by HPLC following derivatization with o-phthaldialdehyde and 2-mercaptoethanol (see Lo et al. 1998).

microglia (BV-2) cells = test: Inhibition of microglial glutamate secretion; format: cell-based; details: Mus musculus
Procedure: As described in Wood, glutamate efflux from microglia is dependent on the presence of added external glutamine. […] Therefore, the concentration of glutamate in the culture medium can be used directly as a measure of glutamate production by these cells.
In assaying the invention compounds, microglia (BV-2) cells were cultured using standard methods, as described in Example 4. On the day of the experiment, cells were incubated in glutamine free medium for 1 to 1.5 hours, then glutamine and test compounds, dissolved in glutamine free medium, were added. Aliquots were removed at 2 h and 4 h for glutamate analysis.
Inhibition of Microglial Glutamate Secretion
BV-2 cells were cultured in 24 well plates using Dulbeccos minimal essential medium containing 10% heat inactivated fetal bovine serum, and grown to 70-80% confluency before use. On the day of the experiment, cells were placed in glutamine free medium for 1 to 1.5 hours. […] This solution was used to replace one half of the 0.5 mL culture medium volume at the end of the glutamine free incubation. Aliquots of 10 μL medium were removed at 2 h and 4 h and placed in 96 well microtiter plates with 90 μL DMF/water (1:9) for glutamate analysis.

astrocytes = test: Intracellular amino acids in primary cultures of astrocytes; format: cell-based
Procedure: To produce dose response curves for lowering of intracellular Glu and Asp (FIG. 6A-B), the procedure was repeated with 4 days (for cerebellar granule cells) and 12 days of incubation (for astrocytes). […] Results are shown in FIGS. 6A-B. Data are expressed as the ratio of Glu, Asp, or GABA to Ala (neurons and astrocytes) or Ser (astrocytes).

SMILES: O=C(Cc1ccccc1)Nc1nnc(CCSCCc2nnc(NC(=O)Cc3ccccc3)s2)s1 [SNX-1770, bis-2′-[5-(phenylacetamido)-1,3,4-thiadiazol-2-yl]ethyl sulfide]
- Effect on intracellular nucleotides [1]: no effect
- Inhibition of glutaminase activity in rat brain membranes [2]: inhibition of glutaminase activity
- inhibition at 10 µM (microglia (BV-2) cells; BV-2, at 10 μM, read-out: Inhibition of glutamate efflux by microglia): ~85%
- IC50 (microglia (BV-2) cells; BV-2 cells, glutamine added, FIG. 4, read-out: IC50, inhibition of glutamate efflux by microglia): 80 to 120 nM
- IC50 (astrocytes; Astrocyte, primary cultures of astrocytes, read-out: IC50, lowering of cellular glutamate): 100 to 300 nM
- Lowering of cellular glutamate (astrocytes; astrocytes, partial and specific): ~30%
- Effect on intracellular (non-glutamate) amino acids, including serine, glycine, arginine, alanine, taurine (astrocytes; at 10 μM, astrocytes): no effect
